Consider one molecule from patent US20200338156A1, “C[…] (CYCLO-HIS PRO) FOR PREVENTING, IMPROVING OR TREATING OF BONE LOSS RELATED DISEASE” (NovMetaPharma Co., Ltd., priority 2017, published 2020).

“Also recorded” adds a separate entry of the source.

Test [1] deals with ovariectomized animal model. The test is described as follows: Osteoporosis alleviation effect in ovariectomized animal model, micro CT of femur. Type of test: in vivo, SD female mice. The protocol:
To determine the effect of alleviating osteoporosis in an ovariectomized animal model according to administration of CHP, a zinc salt, or a mixture thereof, 20-week-old SD female mice (SLC/Central Experimental Animal Co. Ltd., Seoul, Korea) were purchased and raised under certain conditions (temperature: 22±2° C., relative humidity: 55±10%, light/dark cycle: 12 hours). 7 mice/group were allowed to freely drink water and eat food in a cage, subjected to an adaptation period of 1 week before the experiment, and used in the experiment.
After 6 weeks of the administration of CHP, a zinc salt, or a mixture thereof, the effect of alleviating osteoporosis in an ovariectomized animal model was analyzed using Micro CT. The bone mineral density of ovariectomized animals was measured by bone CT scanning of the 3 mm range at the front side of a 2 mm femoral growth plate using micro-CT (QuantumFX, Perkin Elmer, Massachusetts, USA). In addition, a bone volume fraction (BV/TV, %) was measured. The measurement results of the bone mineral density of the femur are illustrated in FIG. 1, and the bone volume fraction is illustrated in FIG. 2.

For a further test, the system named is MC3T3-E1 cells. In words: Osteogenic differentiation of MC3T3-E1 osteoblasts, alkaline phosphatase (ALP) activity. It counts as cell-based. As for the experimental part:
MC3T3-E1 cells were incubated in MEMα, an ascorbic acid-free medium containing 10% FBS and 1% penicillin/streptomycin, in a 5% CO2 incubator at 37° C. To induce osteogenic differentiation, 10 mM β-glycerophosphate and […] of ascorbic acid was further added to the basal medium composition.
500 μl of 1×10^5 MC3T3-E1 cells were seeded into a 24-well plate and cultured for 24 hours until they reached 100% confluency. […] At this time, in the undifferentiated group, which is a negative control for differentiation, a basal medium was used instead of the differentiation medium. In the positive control treated with hPTH1-34, the medium was replaced with a differentiation medium 6 hours after the treatment. While the medium was replaced every 48 hours, each concentration of CHP and hPTH1-34 was treated for a total of 14 days.
On day 14 of differentiation, the medium was removed, followed by washing once with PBS and fixing in 4% paraformaldehyde (PFA) at room temperature for 5 minutes. 500 μl of a 1-STEP™ NBCT/BCIP solution was added to allow a reaction to occur at room temperature for 1 hour. The reaction product was washed with distilled water, and then dried at room temperature, and the degree of coloring of the cells was observed using a microscope. Subsequently, DMSO was added to each well, followed by shaking, and then absorbance at 525 nm was measured.

Regarding `O=C1N[C@@H](Cc2cnc[nH]2)C(=O)N2CCC[C@@H]12` [CHP, cyclo-hispro], the “bone mineral density of a femur” value in test [1] (CHP alone administered to ovariectomized animal model, dose not stated (FIG. 1)) was “significantly increased”. Further, in test [1] (CHP alone administered to ovariectomized animal model, dose not stated (FIG. 2)), the “bone volume fraction of a femur” value is listed as “significantly increased”. Further, in test [1] (group administered 1 mg/L of CHP in drinking water, 6 weeks, micro-CT), the “bone volume fraction (BV/TV)” value was “restored to a level similar to that of the positive control (risedronate)”. Further, the “bone mineral density of the femur” value in test [1] (group administered 1 mg/L of CHP in drinking water, 6 weeks, micro-CT, compared to the ovariectomized group) is recorded as “significant increase”. Further, the “effect on bone mineral density and bone volume fraction versus zinc salt-administered group and combined (zinc salt + CHP) administration group” value in test [1] (ovariectomized animal model, CHP alone) is “significantly stronger”. Also, the “osteogenic differentiation, degree of coloring (ALP staining, FIG. 3)” value in the test on MC3T3-E1 cells (MC3T3-E1, 0.5, 1 or 2 mM CHP, day 14 of differentiation, compared to negative control) was “remarkably increased degree of coloring compared to the negative control; also recorded: as the concentration of CHP treated was increased, osteogenic differentiation and bone modeling were promoted”. For the same molecule, the “ALP activity (absorbance at 525 nm, FIG. 4)” value in the test on MC3T3-E1 cells (MC3T3-E1, CHP 2 mM, day 14, compared to positive control hPTH1-34 10 nM) is given as “level similar to that of the positive control; also recorded: same or similar to that of a positive control”.
